From patent US8613914B2, “Peptidomimetic sulfamide compounds and antiviral uses thereof” (Novartis AG, priority 2009, dated 2013) come the findings set out here.

Sequence of HCV NS3-4A serine protease (full-length NS3-4A protein) (P26664 1027-1657): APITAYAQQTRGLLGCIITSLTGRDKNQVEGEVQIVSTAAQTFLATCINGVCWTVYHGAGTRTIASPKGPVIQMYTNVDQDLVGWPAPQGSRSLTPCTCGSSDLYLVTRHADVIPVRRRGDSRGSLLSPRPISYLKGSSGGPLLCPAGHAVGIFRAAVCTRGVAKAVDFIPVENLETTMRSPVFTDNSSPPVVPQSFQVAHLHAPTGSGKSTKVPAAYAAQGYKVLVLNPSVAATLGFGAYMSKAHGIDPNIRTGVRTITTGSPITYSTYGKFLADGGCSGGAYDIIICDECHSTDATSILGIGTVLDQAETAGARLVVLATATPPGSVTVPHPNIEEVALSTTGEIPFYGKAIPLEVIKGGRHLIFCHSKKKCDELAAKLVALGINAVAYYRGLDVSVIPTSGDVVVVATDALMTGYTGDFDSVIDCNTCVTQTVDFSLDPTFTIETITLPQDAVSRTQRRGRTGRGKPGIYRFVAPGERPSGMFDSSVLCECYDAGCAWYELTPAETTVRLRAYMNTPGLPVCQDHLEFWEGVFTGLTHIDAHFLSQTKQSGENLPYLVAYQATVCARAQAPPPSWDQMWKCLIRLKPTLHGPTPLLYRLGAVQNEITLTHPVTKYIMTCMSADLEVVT
Sequence of HCV NS3-4A serine protease (full-length NS3-4A protein) (P26664 1658-1711 partner): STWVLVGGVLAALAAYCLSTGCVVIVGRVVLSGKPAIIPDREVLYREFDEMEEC

The target in the assay is HCV NS3-4A serine protease (full-length NS3-4A protein) (Hepatitis C virus genotype 1a (isolate 1) (HCV), UniProt P26664). As to the kind of experiment: HCV NS3-4A protease assay. The class given is biochemical, HCV genotype 1a. The conditions noted are these: strain HCV-1, fluorogenic peptide substrate, read-out: Protease assay Ex. 12 IC50. As for the experimental part:
The inhibitory activity of certain compounds of Table A against HCV NS3-4A serine protease is determined in a homogenous assay using the full-length NS3-4A protein (genotype 1a, strain HCV-1) and a commercially available internally-quenched fluorogenic peptide substrate as described by Taliani, M., et al. 1996 Anal. Biochem. 240:60-67, which is incorporated by reference in its entirety.
Turning to `C=C[C@@H]1C[C@]1(NC(=O)[C@@H]1C[C@@]2(CN1C(=O)[C@@H](NC(=O)[C@@H](NC(=O)[C@@H]1CCCCN1C(C)C)C1CCCCC1)C1CCOCC1)C(C)(C)C21CCC1)C(=O)NS(=O)(=O)N(CC)CC` [Compound 84, (5R,8S)-7-[(2S)-2-{[(2S)-2-cyclohexyl-2-({[(2S)-1-isopropylpiperidin-2-yl]carbonyl}amino)acetyl]amino}-2-(tetrahydro-2H-pyran-4-yl)acetyl]-N-[(1R,2S)-1-{[(diethylamino)sulfonyl]carbamoyl}-2-vinylcyclopropyl]-10,10-dimethyl-7-azadispiro[3.0.4.1]decane-8-carboxamide], the IC50 – broadly, the concentration that inhibits the measured activity by half – amounted to 6 nM.
For `C=C[C@@H]1C[C@]1(NC(=O)[C@@H]1C[C@@]2(CN1C(=O)[C@@H](NC(=O)[C@@H](NC(=O)[C@@H]1CCCCN1CC)C1CCCCC1)C1CCOCC1)C(C)(C)C21CCC1)C(=O)NS(=O)(=O)N(CC)CC` [Compound 85, (5R,8S)-7-[(2S)-2-{[(2S)-2-cyclohexyl-2-({[(2S)-1-ethylpiperidin-2-yl]carbonyl}amino)acetyl]amino}-2-(tetrahydro-2H-pyran-4-yl)acetyl]-N-[(1R,2S)-1-{[(diethylamino)sulfonyl]carbamoyl}-2-vinylcyclopropyl]-10,10-dimethyl-7-azadispiro[3.0.4.1]decane-8-carboxamide], the IC50 stood at 4.5 nM.
Consider `CC[C@@H]1C[C@]1(NC(=O)[C@@H]1C[C@@]2(CN1C(=O)[C@@H](NC(=O)[C@@H](NC(=O)[C@@H]1CCCCN1CC)C1CCCCC1)C(C)(C)C)C(C)(C)C21CCC1)C(=O)NS(=O)(=O)N(CC)CC` [Compound 86, (5R,8S)-7-[(2S)-2-{[(2S)-2-cyclohexyl-2-({[(2S)-1-ethylpiperidin-2-yl]carbonyl}amino)acetyl]amino}-3,3-dimethylbutanoyl]-N-[(1R,2R)-1-{[(diethylamino)sulfonyl]carbamoyl}-2-ethylcyclopropyl]-10,10-dimethyl-7-azadispiro[3.0.4.1]decane-8-carboxamide], for which the IC50 turned out to be 4.5 nM.
Turning to `CC[C@@H]1C[C@]1(NC(=O)[C@@H]1C[C@@]2(CN1C(=O)[C@@H](NC(=O)[C@@H](NC(=O)[C@@H]1CCCCN1CC)C1CCCCC1)C(C)(C)C)C(C)(C)C21CCC1)C(=O)NS(=O)(=O)N1CCCC1` [Compound 87, (5R,8S)-7-[(2S)-2-{[(2S)-2-cyclohexyl-2-({[(2S)-1-ethylpiperidin-2-yl]carbonyl}amino)acetyl]amino}-3,3-dimethylbutanoyl]-N-{(1R,2R)-2-ethyl-1-[(pyrrolidin-1-ylsulfonyl)carbamoyl]cyclopropyl}-10,10-dimethyl-7-azadispiro[3.0.4.1]decane-8-carboxamide], the IC50 came to 7 nM.
For the compound `C=C[C@@H]1C[C@]1(NC(=O)C1C[C@@]2(CN1C(=O)[C@@H](NC(=O)c1cccc(C(=O)NC)c1)C(C)(C)C)C(C)(C)C21CCC1)C(=O)NS(=O)(=O)N1CCCC1` (stereo partly drawn) [Compound 88, N-[(1S)-1-{[(5R)-10,10-dimethyl-8-({(1R,2S)-1-[(pyrrolidin-1-ylsulfonyl)carbamoyl]-2-vinylcyclopropyl}carbamoyl)-7-azadispiro[3.0.4.1]dec-7-yl]carbonyl}-2,2-dimethylpropyl]-N′-methylisophthalamide], the IC50 is 500 nM.
Turning to `C=C[C@@H]1C[C@]1(NC(=O)[C@@H]1C[C@@]2(CN1C(=O)[C@@H](NC(=O)[C@@H](NC(=O)[C@@H]1CC(F)(F)CN1C(C)C)C1CCCCC1)C(C)(C)C)C(C)(C)C21CCC1)C(=O)NS(=O)(=O)N1CCCC1` [Compound 89, (5R,8S)-7-[(2S)-2-{[(2S)-2-cyclohexyl-2-({[(2S)-4,4-difluoro-1-isopropylpyrrolidin-2-yl]carbonyl}amino)acetyl]amino}-3,3-dimethylbutanoyl]-10,10-dimethyl-N-{(1R,2S)-1-[(pyrrolidin-1-ylsulfonyl)carbamoyl]-2-vinylcyclopropyl}-7-azadispiro[3.0.4.1]decane-8-carboxamide], the IC50 stood at 30 nM.
For `CC[C@@H]1C[C@]1(NC(=O)[C@@H]1C[C@@]2(CN1C(=O)[C@@H](NC(=O)[C@@H](NC(=O)[C@@H]1CCCCN1C(C)C)C1CCCCC1)C(C)(C)C)C(C)(C)C21CCC1)C(=O)NS(=O)(=O)N(C)C1CC1` [Compound 90, (5R,8S)-7-[(2S)-2-{[(2S)-2-cyclohexyl-2-({[(2S)-1-isopropylpiperidin-2-yl]carbonyl}amino)acetyl]amino}-3,3-dimethylbutanoyl]-N-[(1R,2R)-1-({[cyclopropyl(methyl)amino]sulfonyl}carbamoyl)-2-ethylcyclopropyl]-10,10-dimethyl-7-azadispiro[3.0.4.1]decane-8-carboxamide] the value was 6.5 nM.
Regarding `C=C[C@@H]1C[C@]1(NC(=O)[C@@H]1C[C@@]2(CN1C(=O)[C@@H](NC(=O)[C@@H](NC(=O)[C@@H]1CCCN1C(C)C)C1CCCCC1)C(C)(C)C)C(C)(C)C21CCC1)C(=O)NS(=O)(=O)N(C)CC` [Compound 91, (5R,8S)-7-[(2S)-2-{[(2S)-2-cyclohexyl-2-({[(2S)-1-isopropylpyrrolidin-2-yl]carbonyl}amino)acetyl]amino}-3,3-dimethylbutanoyl]-N-[(1R,2S)-1-({[ethyl(methyl)amino]sulfonyl}carbamoyl)-2-vinylcyclopropyl]-10,10-dimethyl-7-azadispiro[3.0.4.1]decane-8-carboxamide], the IC50 was 5 nM.
For `C=C[C@@H]1C[C@]1(NC(=O)[C@@H]1C[C@@]2(CN1C(=O)[C@@H](NC(=O)[C@@H](NC(=O)[C@H]1CCCCN1C(C)C)C1CCCCC1)C(C)(C)C)C(C)(C)C21CCC1)C(=O)NS(=O)(=O)N(C)CC` [Compound 92, (5R,8S)-7-[(2S)-2-{[(2S)-2-cyclohexyl-2-({[(2R)-1-isopropylpiperidin-2-yl]carbonyl}amino)acetyl]amino}-3,3-dimethylbutanoyl]-N-[(1R,2S)-1-({[ethyl(methyl)amino]sulfonyl}carbamoyl)-2-vinylcyclopropyl]-10,10-dimethyl-7-azadispiro[3.0.4.1]decane-8-carboxamide] the value was 3 nM; for `C=C[C@@H]1C[C@]1(NC(=O)[C@@H]1C[C@@]2(CN1C(=O)[C@@H](NC(=O)[C@@H](NC(=O)[C@@H]1CCCCN1C)C1CCCCC1)C(C)(C)C)C(C)(C)C21CCC1)C(=O)NS(=O)(=O)N(C)CC` [Compound 93, (5R,8S)-7-[(2S)-2-{[(2S)-2-cyclohexyl-2-({[(2S)-1-methylpiperidin-2-yl]carbonyl}amino)acetyl]amino}-3,3-dimethylbutanoyl]-N-[(1R,2S)-1-({[ethyl(methyl)amino]sulfonyl}carbamoyl)-2-vinylcyclopropyl]-10,10-dimethyl-7-azadispiro[3.0.4.1]decane-8-carboxamide], 2 nM; for `C=C[C@@H]1C[C@]1(NC(=O)[C@@H]1C[C@@]2(CN1C(=O)[C@@H](NC(=O)[C@@H](NC(=O)[C@@H]1CCCCN1CC)C1CCCCC1)C(C)(C)C)C(C)(C)C21CCC1)C(=O)NS(=O)(=O)N(C)CC` [Compound 94, (5R,8S)-7-[(2S)-2-{[(2S)-2-cyclohexyl-2-({[(2S)-1-ethylpiperidin-2-yl]carbonyl}amino)acetyl]amino}-3,3-dimethylbutanoyl]-N-[(1R,2S)-1-({[ethyl(methyl)amino]sulfonyl}carbamoyl)-2-vinylcyclopropyl]-10,10-dimethyl-7-azadispiro[3.0.4.1]decane-8-carboxamide], 1.5 nM.
As to `C=C[C@@H]1C[C@]1(NC(=O)[C@@H]1C[C@@]2(CN1C(=O)[C@@H](NC(=O)[C@@H](NC(=O)[C@@H]1CCCN1CC)C1CCCCC1)C(C)(C)C)C(C)(C)C21CCC1)C(=O)NS(=O)(=O)N1CCCCC1` [Compound 95, (5R,8S)-7-[(2S)-2-{[(2S)-2-cyclohexyl-2-({[(2S)-1-ethylpyrrolidin-2-yl]carbonyl}amino)acetyl]amino}-3,3-dimethylbutanoyl]-10,10-dimethyl-N-{(1R,2S)-1-[(piperidin-1-ylsulfonyl)carbamoyl]-2-vinylcyclopropyl}-7-azadispiro[3.0.4.1]decane-8-carboxamide], the IC50 was 5 nM.
`C=C[C@@H]1C[C@]1(NC(=O)[C@@H]1C[C@@]2(CN1C(=O)[C@@H](NC(=O)[C@@H](NC(=O)[C@@H]1CCCN1CC)C1CCCCC1)C1CCOCC1)C(C)(C)C21CCC1)C(=O)NS(=O)(=O)N(CC)CC` [Compound 96, (5R,8S)-7-[(2S)-2-{[(2S)-2-cyclohexyl-2-({[(2S)-1-ethylpyrrolidin-2-yl]carbonyl}amino)acetyl]amino}-2-(tetrahydro-2H-pyran-4-yl)acetyl]-N-[(1R,2S)-1-{[(diethylamino)sulfonyl]carbamoyl}-2-vinylcyclopropyl]-10,10-dimethyl-7-azadispiro[3.0.4.1]decane-8-carboxamide]: the IC50 came to 7 nM.
The same measure for `C=C[C@@H]1C[C@]1(NC(=O)[C@@H]1C[C@@]2(CN1C(=O)[C@@H](NC(=O)[C@@H](NC(=O)[C@@H]1CCCN1CC)C1CCCC1)C(C)(C)C)C(C)(C)C21CCC1)C(=O)NS(=O)(=O)N(CC)CC` [Compound 97, (5R,8S)-7-[(2S)-2-{[(2S)-2-cyclopentyl-2-({[(2S)-1-ethylpyrrolidin-2-yl]carbonyl}amino)acetyl]amino}-3,3-dimethylbutanoyl]-N-[(1R,2S)-1-{[(diethylamino)sulfonyl]carbamoyl}-2-vinylcyclopropyl]-10,10-dimethyl-7-azadispiro[3.0.4.1]decane-8-carboxamide]: 10 nM; for `C=C[C@@H]1C[C@]1(NC(=O)[C@@H]1C[C@@]2(CN1C(=O)[C@@H](NC(=O)[C@@H](NC(=O)[C@@H]1CCCN1CC)C1CCCCC1)C(C)(C)C)C(C)(C)C21CCC1)C(=O)NS(=O)(=O)N(C)CCC` [Compound 98, (5R,8S)-7-[(2S)-2-{[(2S)-2-cyclohexyl-2-({[(2S)-1-ethylpyrrolidin-2-yl]carbonyl}amino)acetyl]amino}-3,3-dimethylbutanoyl]-10,10-dimethyl-N-[(1R,2S)-1-({[methyl(propyl)amino]sulfonyl}carbamoyl)-2-vinylcyclopropyl]-7-azadispiro[3.0.4.1]decane-8-carboxamide]: 7 nM.
